In one data set the test system is HCT-116. The data set is described as follows: Cytotoxicity against human HCT116 cells after 72 hrs by MTT assay. Conditions: HCT-116, 72 h. The format is functional, cell-based. (Tetrazolium assays rely on reduction of a dye to a coloured formazan, in cell work by metabolically active cells.)
The test system of a further data set is A549. In words: Cytotoxicity against human A549 cells after 72 hrs by MTT assay. The data set is classed as functional, cell-based. Particulars: A549, 72 h.
The next data set has as its system HeLa. In words: Cytotoxicity against human HeLa cells after 72 hrs by MTT assay. The format is functional, cell-based.
For another data set, the system named is HepG2. The data set is described as follows: Cytotoxicity against human HepG2 cells after 72 hrs by MTT assay. The data set is classed as functional, cell-based. Particulars: HepG2, 72 h.
A short description of data set [1]: Cytotoxicity against mouse 3T3L1 cells assessed as viability at 100 ug/mL after 72 hrs by MTT assay. The data set is classed as cell-based. Conditions: 3T3-L1 cells, read-out: Activity.

Molecules are shown by their SMILES. Where only a bound is given, the exact number is not on record here.

Broadly, the IC50 is the concentration at which inhibition is half-maximal. Read a low IC50 as greater potency. Regarding `CCCCCCCCCCCCCCCO[C@H]1O[C@H](CO)[C@H](O)[C@H](O)[C@H]1O`, the IC50 was 52.5 µM in the data set on HCT-116, 46.8 µM with A549, 61.3 µM with HeLa and greater than 240 µM with HepG2.
For `CCCCCCCCCCCCOC1O[C@H](CO)[C@H](O)[C@H](O)[C@H]1O` (mixture of isomers), in that order: 47.7 µM, 40.8 µM, 58.6 µM and 63.4 µM.
The corresponding values for `CCCCCCCCCCCCO[C@@H]1O[C@H](CO)[C@H](O)[C@H](O)[C@H]1O` are 97.8 µM, 77.2 µM, 151 µM and 162 µM.
As for `CCCCCCCCCCCCO[C@H]1O[C@H](CO)[C@H](O)[C@H](O)[C@H]1O`, the IC50 in the data set with HCT-116 is 88.8 µM; in the data set on A549 it was 56.7 µM; in the data set with HeLa it was 146 µM; in the data set on HepG2, 138 µM.
For the molecule `CCCCCCCCCCOC1O[C@H](CO)[C@H](O)[C@H](O)[C@H]1O` (mixture of isomers), the IC50 worked out at 140 µM in the data set with HCT-116, 107 µM in the data set on A549, 180 µM in the data set with HeLa and 192 µM in the data set on HepG2.
Turning to `CCCCCCCCCCCCCCCCOC1O[C@H](CO)[C@H](O)[C@H](O)[C@H]1O` (mixture of isomers), the viability at 72 h, 100 ug/mL in data set [1] was 94.3%. The IC50 was 32.2 µM in the data set with HCT-116, 25.3 µM in the data set on A549, 45 µM in the data set with HeLa and greater than 240 µM with HepG2.
Take `CCCCCCCCCCCCCCO[C@H]1O[C@H](CO)[C@H](O)[C@H](O)[C@H]1O`: the IC50 in the data set with HCT-116 came to 72.8 µM; with A549, 49.6 µM; in the data set with HeLa, 67 µM; with HepG2, 68.1 µM.
For `CCCCCCCCCCCO[C@H]1O[C@H](CO)[C@H](O)[C@H](O)[C@H]1O`, the IC50 in the data set with HCT-116 was 152 µM; with A549 it was 102 µM; in the data set with HeLa, 196 µM; in the data set with HepG2, 151 µM.
For `CCCCCCCCCCCCCCCCO[C@H]1O[C@H](CO)[C@H](O)[C@H](O)[C@H]1O`, in that order: 42.7 µM, 38.5 µM, 54.6 µM and greater than 240 µM.
The corresponding values for `CCCCCCCCCCCCCO[C@@H]1O[C@H](CO)[C@H](O)[C@H](O)[C@H]1O` are 85.3 µM, 62 µM, 148 µM and 142 µM.
For `CCCCCCCCCCO[C@@H]1O[C@H](CO)[C@H](O)[C@H](O)[C@H]1O`, in that order: greater than 240 µM, 157 µM, greater than 240 µM and greater than 240 µM.
`CCCCCCCCCCCCCO[C@H]1O[C@H](CO)[C@H](O)[C@H](O)[C@H]1O`: the IC50 in the data set on HCT-116 was determined as 75.1 µM; in the data set on A549 it was 51.8 µM; in the data set with HeLa it was 73.3 µM; with HepG2, 89.9 µM.
The corresponding values for `CCCCCCCCCCCOC1O[C@H](CO)[C@H](O)[C@H](O)[C@H]1O` (mixture of isomers) are 50.9 µM, 45.6 µM, 60.5 µM and 68.2 µM.
As to `CCCCCCCCCCCCCOC1O[C@H](CO)[C@H](O)[C@H](O)[C@H]1O` (mixture of isomers), the IC50 worked out at 38.7 µM in the data set on HCT-116, 39.3 µM with A549, 57.1 µM in the data set with HeLa and 54.3 µM in the data set with HepG2.
Regarding `CCCCCCCCCCCCCCCCO[C@@H]1O[C@H](CO)[C@H](O)[C@H](O)[C@H]1O`, the IC50 in the data set with HCT-116 is greater than 240 µM; in the data set with A549, 151 µM; in the data set on HeLa, greater than 240 µM; with HepG2, greater than 240 µM.
As for `CCCCCCCCCCO[C@H]1O[C@H](CO)[C@H](O)[C@H](O)[C@H]1O`, the IC50 was greater than 240 µM in the data set on HCT-116, 144 µM with A549, greater than 240 µM with HeLa and greater than 240 µM in the data set with HepG2.
In the case of `CCCCCCCCCCCO[C@@H]1O[C@H](CO)[C@H](O)[C@H](O)[C@H]1O`, the IC50 turned out to be 155 µM with HCT-116, 118 µM in the data set on A549, 202 µM in the data set on HeLa and 200 µM in the data set on HepG2.

These data come from ChEMBL document CHEMBL1955736, “The anomeric mixture of some O-galactolipid derivatives is more toxic against cancer cells than either anomer alone” (Bioorg Med Chem Lett, 2012).
